According to patent publication US7638515B2, “Tetrahydronaphthalene derivatives, process for their production and their use as anti-inflammatory agents” (Bayer Schering Pharma Aktiengesellschaft, priority 2003, dated 2009):

biological target: T1, glucocorticoid receptor (GR) (Homo sapiens, UniProt P04150); assay: Binding to the glucocorticoid receptor, recombinantly produced receptor, cytosol preparations of Sf9 cells; conditions: reference substance [3H]-dexamethasone
T1 construct: made in house; host or cells: Sf9 cells infected with recombinant baculovirus (cytosol preparation)
T1 sequence (P04150 1-777): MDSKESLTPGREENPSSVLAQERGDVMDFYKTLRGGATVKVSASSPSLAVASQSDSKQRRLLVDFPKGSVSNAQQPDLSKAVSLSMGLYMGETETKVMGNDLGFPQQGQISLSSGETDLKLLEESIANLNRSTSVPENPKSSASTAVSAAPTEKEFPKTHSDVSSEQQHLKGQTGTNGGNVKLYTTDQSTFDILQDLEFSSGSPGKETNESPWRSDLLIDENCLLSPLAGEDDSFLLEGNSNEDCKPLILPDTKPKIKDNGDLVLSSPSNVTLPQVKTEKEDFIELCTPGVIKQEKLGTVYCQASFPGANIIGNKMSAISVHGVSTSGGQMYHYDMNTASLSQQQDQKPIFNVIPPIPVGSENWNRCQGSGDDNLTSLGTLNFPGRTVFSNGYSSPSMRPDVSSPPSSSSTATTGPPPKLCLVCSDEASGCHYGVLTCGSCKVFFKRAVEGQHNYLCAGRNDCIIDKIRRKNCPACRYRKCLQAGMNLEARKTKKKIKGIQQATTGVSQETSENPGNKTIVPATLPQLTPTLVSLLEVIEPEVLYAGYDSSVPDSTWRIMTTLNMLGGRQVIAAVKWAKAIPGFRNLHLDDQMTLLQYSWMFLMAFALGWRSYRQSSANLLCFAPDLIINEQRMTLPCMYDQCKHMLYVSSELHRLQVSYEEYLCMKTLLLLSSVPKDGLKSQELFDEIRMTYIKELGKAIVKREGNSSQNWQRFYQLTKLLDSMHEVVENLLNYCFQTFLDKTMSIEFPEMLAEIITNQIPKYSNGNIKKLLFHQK
Excerpt: (§1) The binding of the substances to the glucocorticoid receptor (GR) and other steroid-hormone receptors (mineral corticoid receptor (MR), progesterone receptor (PR) and androgen receptor (AR)) is examined with the aid of recombinantly produced receptors. Cytosol preparations of Sf9 cells, which had been infected with recombinant baculoviruses that code for the GR, are used for the binding studies. In comparison to the reference substance [^3H]-dexamethasone, the substances show a high affinity to the GR.

Structure (SMILES) | IC50
CC1(C)CC(O)(C(F)(F)F)C(Nc2cccc3[nH]ncc23)c2cc(F)cc(O)c21 (centres unmarked) [Example 49, 7-Fluoro-1-[(1H-indazol-4-yl)amino]-4,4-dimethyl-2-(trifluoromethyl)-1,2,3,4-tetrahydronaphthalene-2,5-diol] | 95 nM

biological target: T2, progesterone receptor (PR) (Homo sapiens, UniProt P06401); assay: Binding to the progesterone receptor, recombinantly produced receptor; conditions: not given
T2 construct: made in house
T2 sequence (P06401 1-933): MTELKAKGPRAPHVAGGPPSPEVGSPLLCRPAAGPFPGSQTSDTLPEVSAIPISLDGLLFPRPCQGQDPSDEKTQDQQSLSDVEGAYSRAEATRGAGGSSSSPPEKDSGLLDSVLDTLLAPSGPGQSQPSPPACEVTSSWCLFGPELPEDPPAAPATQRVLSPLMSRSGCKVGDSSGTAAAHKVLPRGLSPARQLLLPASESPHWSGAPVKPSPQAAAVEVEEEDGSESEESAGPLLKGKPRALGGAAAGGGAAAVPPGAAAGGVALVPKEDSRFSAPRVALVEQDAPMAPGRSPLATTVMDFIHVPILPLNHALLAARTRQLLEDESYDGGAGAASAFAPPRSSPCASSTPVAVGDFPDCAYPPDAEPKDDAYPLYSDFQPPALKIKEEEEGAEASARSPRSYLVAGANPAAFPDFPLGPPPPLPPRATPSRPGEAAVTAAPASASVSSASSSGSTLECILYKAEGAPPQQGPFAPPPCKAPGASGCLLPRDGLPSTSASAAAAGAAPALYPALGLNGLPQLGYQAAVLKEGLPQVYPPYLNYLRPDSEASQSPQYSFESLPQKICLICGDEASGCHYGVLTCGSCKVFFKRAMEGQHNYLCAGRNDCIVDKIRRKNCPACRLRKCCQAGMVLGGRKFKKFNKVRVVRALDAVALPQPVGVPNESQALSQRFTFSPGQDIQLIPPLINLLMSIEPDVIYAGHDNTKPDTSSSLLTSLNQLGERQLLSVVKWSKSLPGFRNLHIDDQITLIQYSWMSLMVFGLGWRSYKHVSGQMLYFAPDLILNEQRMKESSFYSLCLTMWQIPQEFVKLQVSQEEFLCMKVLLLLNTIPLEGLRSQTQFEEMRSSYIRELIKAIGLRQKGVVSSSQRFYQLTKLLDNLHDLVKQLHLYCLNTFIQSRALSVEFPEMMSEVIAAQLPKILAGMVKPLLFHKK
Excerpt: as §1

Structure (SMILES) | IC50
CC1(C)CC(O)(C(F)(F)F)C(Nc2cccc3[nH]ncc23)c2cc(F)cc(O)c21 (centres unmarked) [Example 49, 7-Fluoro-1-[(1H-indazol-4-yl)amino]-4,4-dimethyl-2-(trifluoromethyl)-1,2,3,4-tetrahydronaphthalene-2,5-diol] | 460 nM

test system: secretion of cytokine IL-8 in the human monocyte cell line THP-1; assay: Inhibition of LPS-triggered secretion of cytokine IL-8 in THP-1 cells (ELISA); assay type: cell-based; conditions: THP-1, supernatant ELISA, read-out: IC50(IL8)
Experimental: The concentration of the cytokines was determined in the supernatant by means of commercially available ELISA kits.

Structure (SMILES) | IC50
CC1(C)CC(O)(C(F)(F)F)C(Nc2cccc3[nH]ncc23)c2cc(F)cc(O)c21 (centres unmarked) [Example 49, 7-Fluoro-1-[(1H-indazol-4-yl)amino]-4,4-dimethyl-2-(trifluoromethyl)-1,2,3,4-tetrahydronaphthalene-2,5-diol] | 19 nM

test system: not given; assay: not given; conditions: not given

Structure (SMILES) | melting point
CC1(C)CC(O)(C(F)(F)F)C(Nc2cccc3[nH]ncc23)c2c(F)ccc(F)c21 (racemic) [Example 105, Rac.-5,8-Difluoro-1-[(1H-indazol-4-yl)amino]-4,4-dimethyl-2-(trifluoromethyl)-1,2,3,4-tetrahydronaphthalen-2-ol] | 209 to 221 °C
CC1(C)CC(O)(C(F)(F)F)C(Nc2cccc3[nH]c(=O)ccc23)c2cc(O)c(Cl)cc21 (centres unmarked) [Example 134, 5-(6-Chloro-2,7-dihydroxy-4,4-dimethyl-2-(trifluoromethyl)-1,2,3,4-tetrahydronaphthalen-1-ylamino)-1H-quinolin-2-one] | 158 °C
COc1ccc2c(c1)C(Nc1ccc(F)c3nc(C)ncc13)C(O)(C(F)(F)F)CC2(C)C (centres unmarked) [Example 135, 1-(8-Fluoro-2-methylquinazolin-5-ylamino)-7-methoxy-4,4-dimethyl-2-(trifluoromethyl)-1,2,3,4-tetrahydronaphthalen-2-ol] | 97 °C
COc1ccc2c(c1)C(Nc1cccc3[nH]c(=O)ccc13)C(O)(C(F)(F)F)CC2(C)C (centres unmarked) [Example 136, 5-(2-Hydroxy-7-methoxy-4,4-dimethyl-2-(trifluoromethyl)-1,2,3,4-tetrahydronaphthalen-1-ylamino)-1H-quinolin-2-one] | 128 °C
COc1ccc2c(c1)C(Nc1cccc3c(=O)[nH]ccc13)C(O)(C(F)(F)F)CC2(C)C (centres unmarked) [Example 137, 5-(2-Hydroxy-7-methoxy-4,4-dimethyl-2-(trifluoromethyl)-1,2,3,4-tetrahydronaphthalen-1-ylamino)-2H-isoquinolin-1-one] | 112 °C
COc1ccc2c(c1)C(Nc1cccc3c(=O)[nH]ncc13)C(O)(C(F)(F)F)CC2(C)C (centres unmarked) [Example 138, 5-(2-Hydroxy-7-methoxy-4,4-dimethyl-2-(trifluoromethyl)-1,2,3,4-tetrahydronaphthalen-1-ylamino)-2H-phthalazin-1-one] | 197 °C
COc1ccc2c(c1)C(Nc1cccc3nc(C)ccc13)C(O)(C(F)(F)F)CC2(C)C (centres unmarked) [Example 139, 7-Methoxy-4,4-dimethyl-1-(2-methylquinolin-5-ylamino)-2-(trifluoromethyl)-1,2,3,4-tetrahydronaphthalen-2-ol] | 85 °C
Cc1ccc2c(NC3c4cc(O)ccc4C(C)(C)CC3(O)C(F)(F)F)cccc2n1 (centres unmarked) [Example 140, 4,4-Dimethyl-1-(2-methylquinolin-5-ylamino)-2-(trifluoromethyl)-1,2,3,4-tetrahydronaphthalene-2,7-diol] | 127 °C
CC1(C)CC(O)(C(F)(F)F)C(Nc2cccc3c(=O)[nH]ncc23)c2cc(O)ccc21 (centres unmarked) [Example 141, 5-(2,7-Dihydroxy-4,4-dimethyl-2-(trifluoromethyl)-1,2,3,4-tetrahydronaphthalen-1-ylamino)-2H-phthalazin-1-one] | 116 °C
COc1cccc2c1CCC(O)(C(F)(F)F)C2Nc1cccc2[nH]c(=O)ccc12 (centres unmarked) [Example 144, 5-(2-Hydroxy-5-methoxy-2-(trifluoromethyl)-1,2,3,4-tetrahydronaphthalen-1-ylamino)-1H-quinolin-2-one] | 228 °C
COc1cccc2c1CCC(O)(C(F)(F)F)C2Nc1ccc(F)c2nc(C)ncc12 (centres unmarked) [Example 145, 1-(8-Fluoro-2-methylquinazolin-5-ylamino)-5-methoxy-2-(trifluoromethyl)-1,2,3,4-tetrahydro-naphthalen-2-ol] | 132 °C
